Measured values published in patent US7160859B2, “Mst1 modulation of apoptosis in cardiac tissue and modulators of Mst1 for treatment and prevention of cardiac disease” (University of Medicine & Dentistry of New Jersey, priority 2002, dated 2007).
One block for each compound: values may come before it.

Legend:
[1] = tested on: Mst1; test: In gel myelin basic protein (MBP) kinase assay of cardiac myocyte lysates; type: cell-based, rat; details: in the presence of DEVD-CHO, 100 μM
Description: FIGS. 1A, 1B, 1C, 1D and 1E depict Mst1 activity assessed on treatment of cardiac myocytes with chelerythrine (Chele) or calyculin A. (A) Cardiac myocytes were treated with indicated concentrations of chelerythrine for 1 h. Cell lysates were subjected to in-gel myelin basic protein (MBP) kinase assay as well as immunoblotting with anti-cleaved caspase-3 antibody. Results are representative of more than five experiments. (B) Cardiac myocytes were treated with chelerythrine (Chele). In the right panel, myocytes were transduced with either control virus or adenovirus harboring XIAP 48 hours before Chele application. Cell lysates were subjected with immune complex in-gel MBP kinase assays, using anti-Mst1 polyclonal antibody (pAb-15). The activity of cleaved Mst1 is shown. (C) Cardiac myocytes were treated with Chele for the indicated durations. […]
Primary cultures of ventricular cardiac myocytes were prepared from 1-day-old Crl: (WI) BR-Wistar rats (Charles River Laboratories, Wilmington, Mass.) as described previously (34). […] We obtained myocyte cultures in which more than 95% were myocytes, as assessed by immunofluorescence staining with a monoclonal antibody against sarcomeric myosin (MF20). […]

[2] = tested on: cardiac myocytes; test: Cell Death Detection ELISA: cytoplasmic accumulation of mono- and oligo-nucleosomes (DNA fragmentation); type: cell-based, rat
Description: Primary cultures of ventricular cardiac myocytes were prepared from 1-day-old Crl: (WI) BR-Wistar rats (Charles River Laboratories, Wilmington, Mass.) as described previously (34). A cardiac myocyte rich fraction was obtained by centrifugation through the discontinuous Percoll gradient as described (34). Cells were cultured in the cardiac myocyte culture medium containing Dulbecco's modified Eagle medium (DMEM)/F12 supplemented with 5% horse serum, 4 μg/mL transferrin, 0.7 ng/mL sodium selenite (GIBCO), 2 g/L bovine serum albumin (fraction V), 3 mmol/L pyruvic acid, 15 mmol/L HEPES, 100 μmol/L ascorbic acid, 100 μg/mL ampicillin, 5 μg/mL linoleic acid and 100 μmol/L 5-bromo-2′-deoxyuridine (Sigma). We obtained myocyte cultures in which more than 95% were myocytes, as assessed by immunofluorescence staining with a monoclonal antibody against sarcomeric myosin (MF20). Culture media were changed to serum-free at 24–36 h and then subjected to adenovirus transduction. Myocytes were cultured in the serum-free condition for 48 h before experiments.
Histone-associated DNA fragments were quantified by the Cell Death Detection ELISA (Roche, Indianapolis, Ind.) according to the manufacturer's instruction as described (35) with minor modification for sample preparation. In brief, myocytes were rinsed with PBS three times in order to remove nucleosomes leaked out from necrotic cells and then incubated with the lysis buffer for 30 min. The supernatant containing mono- and oligonucleosomes from the cytoplasmic fraction of apoptotic cells was used for further analyses. DNA fragmentation of the tissue samples was determined by DNA laddering assays. Genomic DNA containing small molecular weight fragments was isolated and analyzed by agarose gel electrophoresis as described (36).

[3] = tested on: Neonatal rat cardiac myocytes; test: Phenylephrine-induced hypertrophy of cultured cardiac myocytes; type: cell-based; details: PE 10 μM 48 h, LacZ virus-transduced myocytes
Description: We have previously and above shown that mammalian sterile-20 like kinase 1 (Mst1) plays an important role in mediating cardiac myocyte apoptosis in response to ischemia/reperfusion and doxorubicin treatment. Cardiac specific overexpression of Mst1 in transgenic mice (Tg-Mst1) increases cardiac myocyte apoptosis in the heart and the mice develop dilated cardiomyopathy (DCM) and congestive heart failure within 3 months of age. […] Lack of compensatory cardiac myocyte hypertrophy may adversely affect LV function of Tg-Mst1 because operation of the Frank Starling mechanism could be less efficient at the individual cell level. This study was undertaken in order to elucidate if transient expression of Mst1 has a direct anti-hypertrophic effects in cultured cardiac myocytes in vitro. Neonatal rat cardiac myocytes were transduced with adenoviral vectors (10 MOI) in serum-free conditions for 48 h and then treated with phenylephrine (PE, 10 μM) for 48 h. Phenylephrine stimulates hypertrophy of cardiac myocytes in normal animals. Treatment of LacZ virus-transduced myocytes with PE caused a 2.4 fold increase in the cell size and a 1.7 fold increase in protein/DNA content. […] In summary, Mst1 has a direct anti-hypertrophic effect upon PE-treated cultured cardiac myocytes, possibly affecting other signaling mechanisms, including ERKs.

[4] = tested on: caspase-3; test: Immunoblot with anti-cleaved caspase-3 antibody; type: cell-based, rat; details: Doxo, 6 and 24 hour time points
Description: For analyses of Mst1, cells were lysed in a Lysis Buffer A, containing 25 mmol/L NaCl, 25 mmol/L Tris (pH 7.4), 1 mmol/L Na3VO4, 10 mmol/L NaF, 10 mmol sodium pyrophosphate, 0.5 mmol/L EGTA, 0.5 mmol/L AEBSF, 0.5 μ/mL leupeptin, 0.5 μ/mL aprotinin. Samples containing the equal amount of protein were subjected to SDS-PAGE. Proteins were transferred onto polyvinylidene fluoride microporous membranes (Bio Rad, Hercules, Calif.) and probed with primary antibodies. We used anti-Mst1 monoclonal antibody (Transduction Laboratory, Lexington, Ky.) for detection of the carboxyl terminus of Mst1. Affinity purified rabbit polyclonal antibody was raised against animo-terminal ETVQLRNPPRRQLKC (pAb-15) (SEQ ID NO:4) (BioSource International, Camarillo, Calif.) for detection of the amino-terminus of Mst1. Blots were then probed by horseradish peroxidase-conjugated anti-mouse IgG or anti-rabbit IgG (Cell Signaling Technolog Inc., Beverly, Mass.). Antigen-antibody complexes were visualized by the enhanced chemiluminescence system (ECL, Amersham/Pharmacia, Piscataway, N.J.). Polyclonal antibodies raised against cleaved caspase-3 (Cell Signaling Technology Inc.) were used to determine activation of caspase-3, as described (35).

[5] = tested on: cardiac myocytes; test: Morphology of cardiac myocytes (cell shrinkage, cell death); type: cell-based, rat; details: within 6 h
[6] = tested on: caspase-9; test: Western blot of caspase-9 cleavage; type: cell-based, rat; details: Doxo, 6 and 24 hour time points

- increased activities and cleavage of Mst1 by overexpression of Mst1 [1]: attenuated
Compound: DEVD-CHO
- increases in DNA fragmentation by wild type Mst1 ([2]; in the presence of DEVD-CHO, 100 μM): inhibited

Compound: CNC[C@H](O)c1cccc(O)c1 [PE, phenylephrine]
- increase in protein/DNA content [3]: 1.7 fold
- increase in the cell size [3]: 2.4 fold

- activation (cleavage) of caspase-3 [4]: time dependent manner
Compound: COc1cccc2c1C(=O)c1c(O)c3c(c(O)c1C2=O)C[C@@](O)(C(=O)CO)C[C@@H]3O[C@H]1C[C@H](N)[C@H](O)[C@H](C)O1 [Dox, Doxorubicin]
- concentrations that dose-dependently induced cell shrinkage [5]: 0.1 to 3 µM
- activation (cleavage) of caspase-9 [6]: time dependent manner
- OD405 value (DNA fragmentation ELISA) ([2]; 6 h treatment with 0.5 μM Dox, control virus): 0.69

Compound: COC[C@@H]([C@H](O)[C@H](O)C(=O)NCC[C@H](C)c1nc(/C=C/C[C@@H]2O[C@]3(C[C@@H](O)[C@@H]2C)O[C@H]([C@H](C[C@H](O)[C@H](C)[C@H](O)[C@H](C)/C=C(C)/C(C)=C/C=C/C(C)=C\C#N)OC)[C@H](OP(=O)(O)O)C3(C)C)co1)N(C)C [calyculin A]
- increase in cytoplasmic accumulation of oligo- and mono-nucleosomes ([2]; vs untreated, n=4, p<0.05): 4.3±1.4 fold
- DNA fragmentation by calyculin A ([2]; with control virus): 5.6 fold
